# Assay results published in patent US10576062B2, “Carbamoyloxymethyl triazole cyclohexyl acids as LPA antagonists” (Bristol-Myers Squibb Company, priority 2016, dated 2020).
# Biological target: T1, human LPA1 (Homo sapiens, UniProt Q92633)
# T1 construct: expressed in transfected cells; host or cells: Chinese hamster ovary (CHO) cells
# Test: LPA1 functional antagonist assay (LPA-induced calcium flux)
# Assay type: cell-based
# Settings: CHO cells overexpressing human LPA1; inhibition of calcium flux induced by 10 nM LPA; read-out: hLPA1 IC50
# Method in brief: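 CHO cells overexpressing human LPA1, loaded with calcium dye 30 min at 37° C, were preincubated 20 min at room temperature with compound (0.08 nM–5 μM, 0.5% DMSO) in HBSS/20 mM HEPES/0.1% fatty acid-free BSA.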
# T1 sequence (Q92633 whole entry): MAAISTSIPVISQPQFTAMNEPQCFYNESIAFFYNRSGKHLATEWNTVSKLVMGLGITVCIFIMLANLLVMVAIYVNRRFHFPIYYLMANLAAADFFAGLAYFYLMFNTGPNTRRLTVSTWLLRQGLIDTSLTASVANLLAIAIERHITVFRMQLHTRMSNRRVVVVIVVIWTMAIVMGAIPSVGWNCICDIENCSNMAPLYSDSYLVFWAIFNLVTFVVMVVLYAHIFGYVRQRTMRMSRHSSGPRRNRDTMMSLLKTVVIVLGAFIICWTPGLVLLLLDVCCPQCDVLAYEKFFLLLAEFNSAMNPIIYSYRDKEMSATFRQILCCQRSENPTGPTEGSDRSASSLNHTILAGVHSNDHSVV
row,IC50 [nM],SMILES
1,384,"CC(OC(=O)N(C)CC1CCC1)c1c(-c2ccc(O[C@H]3CCC[C@H](C(=O)O)C3)cc2)nnn1C (mixture of isomers) [Example 12, (1S,3S)-3-(4-(5-(1-(((cyclobutylmethyl)(methyl)carbamoyl)oxy)ethyl)-1-methyl-1H-1,2,3-triazol-4-yl)phenoxy)cyclohexane-1-carboxylic Acid]"
2,160,"CCc1nc(-c2nnn(C)c2COC(=O)N(C)CC)ccc1O[C@H]1CCC[C@H](C(=O)O)C1 [Example 202, (1S,3S)-3-((2-ethyl-6-(5-(((ethyl(methyl)carbamoyl)oxy)methyl)-1-methyl-1H-1,2,3-triazol-4-yl)pyridin-3-yl)oxy)cyclohexane-1-carboxylic acid]"
3,29,"Cc1nc(-c2nnn(C)c2COC(=O)N(C)CC2CC2C)ccc1O[C@H]1CCC[C@H](C(=O)O)C1 (stereo partly drawn) [Example 262, (1S,3S)-3-((2-methyl-6-(1-methyl-5-(((methyl((2-methylcyclopropyl)methyl)carbamoyl)oxy)methyl)-1H-1,2,3-triazol-4-yl)pyridin-3-yl)oxy)cyclohexane-1-carboxylic acid]"
4,15,"CN(C(=O)OCc1c(-c2ccc(O[C@H]3CCC[C@H](C(=O)O)C3)c(C(F)(F)F)n2)nnn1C)C1CCCC1 [Example 276, (1S,3S)-3-((6-(5-(((cyclopentyl(methyl)carbamoyl)oxy)methyl)-1-methyl-1H-1,2,3-triazol-4-yl)-2-(trifluoromethyl)pyridin-3-yl)oxy)cyclohexane-1-carboxylic acid]"
5,18,"Cc1nc(-c2nnn(C)c2COC(=O)N(C)C[C@@H]2C[C@H]2C)ccc1O[C@H]1CCC[C@H](C(=O)O)C1 [Example 257, (1S,3S)-3-((2-methyl-6-(1-methyl-5-(((methyl(((1R,2R)-2-methylcyclopropyl)methyl)carbamoyl)oxy)methyl)-1H-1,2,3-triazol-4-yl)pyridin-3-yl)oxy)cyclohexane-1-carboxylic Acid]"
6,440,"CN(CC1CCC1)C(=O)OCc1c(-c2cnc(O[C@H]3CCC[C@H](C(=O)O)C3)c(C(F)(F)F)c2)nnn1C [Example 239, (1S,3S)-3-((5-(5-((((cyclobutylmethyl)(methyl)carbamoyl)oxy)methyl)-1-methyl-1H-1,2,3-triazol-4-yl)-3-(trifluoromethyl)pyridin-2-yl)oxy)cyclohexane-1-carboxylic acid]"
7,122,"Cc1nc(-c2nnn(C)c2COC(=O)N(C)CC2(F)CCC2)cnc1O[C@H]1CCC[C@H](C(=O)O)C1 [Example 233, (1S,3S)-3-((5-(5-(((((1-fluoro-cyclobutyl)methyl)(methyl)carbamoyl)oxy)methyl)-1-methyl-1H-1,2,3-triazol-4-yl)-3-methylpyrazin-2-yl)oxy)cyclohexane-1-carboxylic acid]"
8,5.6,"CCCCN(C)C(=O)OCc1c(-c2ccc(O[C@H]3CCC[C@H](C(=O)O)C3)c(C(F)(F)F)n2)nnn1C [Example 275, (1S,3S)-3-((6-(5-(((butyl(methyl)carbamoyl)oxy)methyl)-1-methyl-1H-1,2,3-triazol-4-yl)-2-(trifluoromethyl)pyridin-3-yl)oxy)cyclohexane-1-carboxylic acid]"
9,1070,"CN(CC1CC1)C(=O)OCc1c(-c2cnc(O[C@H]3CCC[C@H](C(=O)O)C3)cn2)nnn1C [Example 213, (1S,3S)-3-((5-(5-((((cyclopropylmethyl)(methyl)carbamoyl)oxy)methyl)-1-methyl-1H-1,2,3-triazol-4-yl)pyrazin-2-yl)oxy)cyclohexane-1-carboxylic acid]"

# Same assay, conditions: human LPA1; read-out: hLPA1 IC50
row,IC50 [nM],SMILES
1,178,"Cc1nc(-c2nnn(C)c2COC(=O)N2CCCC(C)C2)ccc1O[C@H]1CCC[C@H](C(=O)O)C1 (mixture of isomers) [Example 161, (1S,3S)-3-((2-methyl-6-(1-methyl-5-(((3-methylpiperidine-1-carbonyl)oxy)methyl)-1H-1,2,3-triazol-4-yl)pyridin-3-yl)oxy)cyclohexane-1-carboxylic acid]"
2,156,"Cc1nc(-c2nnn(C)c2COC(=O)N(C)C(C)(C)CF)ccc1O[C@H]1CCC[C@H](C(=O)O)C1 [Example 178, (1S,3S)-3-((6-(5-((((1-fluoro-2-methylpropan-2-yl)(methyl)carbamoyl)oxy)methyl)-1-methyl-1H-1,2,3-triazol-4-yl)-2-methyl-pyridin-3-yl)oxy)cyclohexane-1-carboxylic acid]"
3,162,"Cc1nc(-c2nnn(C)c2COC(=O)N2CC3(CCCC3)C2)ccc1O[C@H]1CCC[C@H](C(=O)O)C1 [Example 159, (1S,3S)-3-((6-(5-(((2-azaspiro[3.4]octane-2-carbonyl)oxy)methyl)-1-methyl-1H-1,2,3-triazol-4-yl)-2-methylpyridin-3-yl)oxy)cyclohexane-1-carboxylic acid]"

# Same assay, conditions: read-out: hLPA1 IC50
row,IC50 [nM],SMILES
1,243,"Cc1nc(-c2nnn(C)c2COC(=O)N(C)C2(CC(C)C)CC2)ccc1O[C@H]1CCC[C@H](C(=O)O)C1 [Example 130, (1S,3S)-3-((6-(5-((((1-isobutylcyclopropyl)(methyl)carbamoyl)oxy)methyl)-1-methyl-1H-1,2,3-triazol-4-yl)-2-methylpyridin-3-yl)oxy)cyclohexane-1-carboxylic acid]"
2,27,"CCCC(C)(C)N(C)C(=O)OCc1c(-c2ccc(O[C@H]3CCC[C@H](C(=O)O)C3)cn2)nnn1C [Example 78, (1S,3S)-3-((6-(1-methyl-5-(((methyl(2-methylpentan-2-yl)carbamoyl)oxy)methyl)-1H-1,2,3-triazol-4-yl)pyridin-3-yl)oxy)cyclohexane-1-carboxylic acid]"
3,25,"CCCC(C)N(C)C(=O)OCc1c(-c2ccc(O[C@H]3CCC[C@H](C(=O)O)C3)c(F)c2)nnn1C (mixture of isomers) [Example 28, (1S,3S)-3-(2-fluoro-4-(1-methyl-5-(((methyl(pentan-2-yl)carbamoyl)oxy)methyl)-1H-1,2,3-triazol-4-yl)phenoxy)cyclohexane-1-carboxylic acid]"
4,292,"Cc1nc(-c2nnn(C)c2COC(=O)N2CCCC(C)(C)C2)ccc1O[C@H]1CCC[C@H](C(=O)O)C1 [Example 137, (1S,3S)-3-((6-(5-(((3,3-dimethylpiperidine-1-carbonyl)oxy)methyl)-1-methyl-1H-1,2,3-triazol-4-yl)-2-methylpyridin-3-yl)oxy)cyclohexane-1-carboxylic acid]"
5,14,"CC(C1CCC1)N(C)C(=O)OCc1c(-c2ccc(O[C@H]3CCC[C@H](C(=O)O)C3)cc2)nnn1C (single isomer, unassigned) [Example 49]"
6,20,"CC(C1CC1)N(C)C(=O)OCc1c(-c2ccc(O[C@H]3CCC[C@H](C(=O)O)C3)c(F)c2)nnn1C (mixture of isomers) [Example 45, (1S,3S)-3-(4-(5-((((1-cyclopropylethyl)(methyl)carbamoyl)oxy)methyl)-1-methyl-1H-1,2,3-triazol-4-yl)-2-fluorophenoxy)cyclohexane-1-carboxylic acid]"
7,60,"CN(C(=O)OCc1c(-c2ccc(O[C@H]3CCC[C@H](C(=O)O)C3)cn2)nnn1C)C(C1CC1)C1CC1 [Example 80, (1S,3S)-3-((6-(5-((((Dicyclopropylmethyl)(methyl)carbamoyl)oxy)methyl)-1-methyl-1H-1,2,3-triazol-4-yl)pyridin-3-yl)oxy)cyclohexanecarboxylic acid]"
8,250,"Cc1nc(-c2nnn(C)c2COC(=O)N2CCC(C)C2)ccc1O[C@H]1CCC[C@H](C(=O)O)C1 (mixture of isomers) [Example 147, (1S,3S)-3-((2-methyl-6-(1-methyl-5-(((3-methylpyrrolidine-1-carbonyl)oxy)methyl)-1H-1,2,3-triazol-4-yl)pyridin-3-yl)oxy)cyclohexane-1-carboxylic acid]"
9,69,"CCCC(C)(C)N(C)C(=O)OCc1c(-c2ccc(O[C@H]3CCC[C@H](C(=O)O)C3)c(C)n2)nnn1C [Example 84, (1S,3S)-3-((2-methyl-6-(1-methyl-5-(((methyl(2-methylpentan-2-yl)carbamoyl)oxy)methyl)-1H-1,2,3-triazol-4-yl)pyridin-3-yl)oxy)cyclohexanecarboxylic acid]"
10,252,"Cc1nc(-c2nnn(C)c2COC(=O)N(C)C2CC2)ccc1O[C@H]1CCC[C@H](C(=O)O)C1 [Example 142, (1S,3S)-3-((6-(5-(((cyclopropyl(methyl)carbamoyl)oxy)methyl)-1-methyl-1H-1,2,3-triazol-4-yl)-2-methylpyridin-3-yl)oxy)cyclohexane-1-carboxylic acid]"
11,21,"CN(C(=O)OCc1c(-c2ccc(O[C@H]3CCC[C@H](C(=O)O)C3)cn2)nnn1C)C1CCCC1 (racemic) [Example 18, (rac)-3-((6-(5-(((cyclopentyl(methyl)carbamoyl)oxy)methyl)-1-methyl-1H-1,2,3-triazol-4-yl)pyridin-3-yl)oxy)cyclohexane-1-carboxylic acid]"
12,23,"[2H]C([2H])([2H])n1nnc(-c2ccc(O[C@H]3CCC[C@H](C(=O)O)C3)cn2)c1COC(=O)N(C)C1CCCC1 [Example 111, (1S,3S)-3-((6-(5-(((cyclopentyl(methyl)carbamoyl)oxy)methyl)-1-(methyl-d3)-1H-1,2,3-triazol-4-yl)pyridin-3-yl)oxy)cyclohexane-1-carboxylic acid]"
13,33,"CCCCN(CC)C(=O)OCc1c(-c2ccc(O[C@H]3CCC[C@H](C(=O)O)C3)c(C)n2)nnn1C [Example 127, (1S,3S)-3-((6-(5-(((butyl(ethyl)carbamoyl)oxy)methyl)-1-methyl-1H-1,2,3-triazol-4-yl)-2-methylpyridin-3-yl)oxy)cyclohexane-1-carboxylic acid]"
14,6,"CCCCN(C)C(=O)OCc1c(-c2ccc(O[C@H]3CCC[C@H](C(=O)O)C3)c(F)c2)nnn1C [Example 46, (1S,3S)-3-(4-(5-(((butyl(methyl)carbamoyl)oxy)methyl)-1-methyl-1H-1,2,3-triazol-4-yl)-2-fluorophenoxy)cyclohexane-1-carboxylic acid]"
